According to patent US4442044A, “Process for preparing monoesters and diesters of N-alkyl substituted amino methyl phosphonic acid” (priority 1983, dated 1984):

How the values were obtained:
Assay in all cases: post-emergent herbicidal activity, greenhouse
Assay type in all cases: in vivo
[1] = system: Velvetleaf; conditions: Table I
Text: (§1) A good grade of top soil is placed in aluminum pans having holes in the bottom and compacted to a depth of 0.95 to 1.27 cm. from the top of the pan. A predetermined number of seeds of each of several dicotyledonous and monocotyledonous annual plant species and/or vegetative propagules for the perennial plant species were placed on the soil and pressed into the soil surface. The seeds and/or vegetative propagules are covered with soil and leveled. The pans are then placed on a sand bench in the greenhouse and watered from below as needed. After the plants reach the desired age (two to three weeks), each pan except for the control pans is removed individually to a spraying chamber and sprayed by means of an atomizer operating at a positive air pressure of approximately 1.46 kg/cm^2 absolute. The atomizer contains 6 ml. of a solution or suspension of the chemical. In that 6 ml., is an amount of a cyclohexanone emulsifying agent mixture to give a spray solution or suspension which contains about 0.4% by weight of the emulsifier. The spray solution or suspension contains a sufficient amount of the candidate chemical in order to give application rates corresponding to those set forth in the tables. The spray solution is prepared by taking an aliquot of a 1.0% by weight stock solution or suspension of the candidate chemical in an organic solvent such as acetone or tetrahydrofuran or in water. The emulsifying agent employed is a mixture comprising 35 weight percent butylamine dodecylbenzene sulfonate and 65 weight percent of a tall oil ethylene oxide condensate having about 11 moles of ethylene oxide per mole of tall oil. The pans are returned to the greenhouse and watered as before and the injury to the plants as compared to the control is observed at approximately two and four weeks as indicated in the tables under WAT and the results recorded. In some instances, the two-week observations are omitted.
(§2) The post-emergent herbicidal activity index used in Tables I and II is as follows: […]

[2] = system: Lambsquarters; conditions: Table I
Text: as §1, §2

[3] = system: Downy Brome; conditions: Table I
Text: as §1, §2

[4] = system: Smartweed; conditions: Table I
Text: as §1, §2

[5] = system: Johnsongrass; conditions: Table I
Text: as §1, §2

[6] = system: Barnyardgrass; conditions: Table I
Text: as §1, §2

[7] = system: Cocklebur; conditions: Table I
Text: as §1, §2

[8] = system: Canada Thistle; conditions: Table I, 4 WAT
Text: as §1, §2

[9] = system: Yellow Nutsedge; conditions: Table I
Text: as §1, §2

[10] = system: Quackgrass; conditions: Table I
Text: as §1, §2

[11] = system: Morningglory; conditions: Table I
Text: as §1, §2

Compound	post-emergent herbicidal activity index ([1]; 4 WAT, 11.2 kg/h)	post-emergent herbicidal activity index ([1]; 4 WAT, 56.0 kg/h)	post-emergent herbicidal activity index ([2]; 4 WAT, 11.2 kg/h)	post-emergent herbicidal activity index ([2]; 4 WAT, 56.0 kg/h)	post-emergent herbicidal activity index ([3]; 4 WAT, 11.2 kg/h)	post-emergent herbicidal activity index ([3]; 4 WAT, 56.0 kg/h)	post-emergent herbicidal activity index ([4]; 4 WAT, 11.2 kg/h)	post-emergent herbicidal activity index ([4]; 4 WAT, 56.0 kg/h)	post-emergent herbicidal activity index ([5]; 4 WAT, 11.2 kg/h)	post-emergent herbicidal activity index ([5]; 4 WAT, 56.0 kg/h)	post-emergent herbicidal activity index ([6]; 4 WAT, 11.2 kg/h)	post-emergent herbicidal activity index ([6]; 4 WAT, 56.0 kg/h)	post-emergent herbicidal activity index ([7]; 4 WAT, 11.2 kg/h)	post-emergent herbicidal activity index ([7]; 4 WAT, 56.0 kg/h)	post-emergent herbicidal activity index ([8]; 56.0 kg/h)	post-emergent herbicidal activity index ([9]; 4 WAT, 11.2 kg/h)	post-emergent herbicidal activity index ([9]; 4 WAT, 56.0 kg/h)	post-emergent herbicidal activity index ([10]; 4 WAT, 11.2 kg/h)	post-emergent herbicidal activity index ([10]; 4 WAT, 56.0 kg/h)	post-emergent herbicidal activity index ([11]; 4 WAT, 11.2 kg/h)	further results
CCOC(=O)CNCP(=O)(OC(C)(C)C#N)OC(C)(C)C#N [Example 2, glycine, N-[bis(1-cyano-1-methyl-ethoxy)phosphinylmethyl], ethyl ester]	0 (0-24% control)	0 (0-24% control)	0 (0-24% control)	1 (25-49% control)	0 (0-24% control)	0 (0-24% control)	0 (0-24% control)	1 (25-49% control)	0 (0-24% control)	0 (0-24% control)	1 (25-49% control)	0 (0-24% control)	0 (0-24% control)	1 (25-49% control)	4 (100% control)	0 (0-24% control)	0 (0-24% control)	0 (0-24% control)	0 (0-24% control)	0 (0-24% control)	post-emergent herbicidal activity index ([1]; 2 WAT, 5.6 kg/h): 0 (0-24% control); post-emergent herbicidal activity index ([2]; 2 WAT, 5.6 kg/h): 0 (0-24% control); post-emergent herbicidal activity index ([3]; 2 WAT, 5.6 kg/h): 0 (0-24% control); post-emergent herbicidal activity index ([4]; 2 WAT, 5.6 kg/h): 0 (0-24% control); post-emergent herbicidal activity index ([5]; 2 WAT, 5.6 kg/h): 0 (0-24% control); post-emergent herbicidal activity index ([6]; 2 WAT, 5.6 kg/h): 0 (0-24% control); post-emergent herbicidal activity index ([7]; 2 WAT, 5.6 kg/h): 0 (0-24% control); post-emergent herbicidal activity index ([9]; 2 WAT, 5.6 kg/h): 0 (0-24% control); post-emergent herbicidal activity index ([10]; 2 WAT, 5.6 kg/h): 0 (0-24% control); post-emergent herbicidal activity index ([11]; 2 WAT, 5.6 kg/h): 0 (0-24% control); post-emergent herbicidal activity index ([11]; 4 WAT, 56.0 kg/h): 1 (25-49% control)
CCOC(=O)CNCP(=O)(OC(C)C(=O)OC)OC(C)C(=O)OC (stereo not drawn) [Example 18]	0 (0-24% control)		0 (0-24% control)		2 (50-74% control)		0 (0-24% control)		1 (25-49% control)		2 (50-74% control)		0 (0-24% control)			2 (50-74% control)		3 (75-99% control)		1 (25-49% control)	post-emergent herbicidal activity index ([1]; 4 WAT, 5.6 kg/h): 0 (0-24% control); post-emergent herbicidal activity index ([2]; 4 WAT, 5.6 kg/h): 0 (0-24% control); post-emergent herbicidal activity index ([3]; 4 WAT, 5.6 kg/h): 0 (0-24% control); post-emergent herbicidal activity index ([4]; 4 WAT, 5.6 kg/h): 0 (0-24% control); post-emergent herbicidal activity index ([5]; 4 WAT, 5.6 kg/h): 0 (0-24% control); post-emergent herbicidal activity index ([6]; 4 WAT, 5.6 kg/h): 1 (25-49% control); post-emergent herbicidal activity index ([7]; 4 WAT, 5.6 kg/h): 0 (0-24% control); post-emergent herbicidal activity index ([8]; 5.6 kg/h): 0 (0-24% control); post-emergent herbicidal activity index ([8]; 11.2 kg/h): 0 (0-24% control); post-emergent herbicidal activity index ([9]; 4 WAT, 5.6 kg/h): 1 (25-49% control); post-emergent herbicidal activity index ([10]; 4 WAT, 5.6 kg/h): 0 (0-24% control); post-emergent herbicidal activity index ([11]; 4 WAT, 5.6 kg/h): 1 (25-49% control)
CCOC(=O)CNCP(=O)(O)OCC(Cl)(Cl)Cl [Example 26, glycine, N-[[(2,2,2-trichloroethoxy)hydroxyphosphinyl]methyl]-ethyl ester]	0 (0-24% control)	0 (0-24% control)	1 (25-49% control)	1 (25-49% control)	0 (0-24% control)	0 (0-24% control)	0 (0-24% control)	1 (25-49% control)	0 (0-24% control)	0 (0-24% control)	1 (25-49% control)	1 (25-49% control)	1 (25-49% control)	1 (25-49% control)	0 (0-24% control)	0 (0-24% control)	1 (25-49% control)	0 (0-24% control)	0 (0-24% control)	0 (0-24% control)	post-emergent herbicidal activity index ([8]; 11.2 kg/h): 0 (0-24% control); post-emergent herbicidal activity index ([11]; 4 WAT, 56.0 kg/h): 1 (25-49% control)
